Test [1] has as its system N0-STZ rats. As to the kind of experiment: Fasting plasma glucose concentration on day 5 in the N0-STZ rat model. Particulars: 2 × 100 mg/kg daily; day 5, after 2 hour fasting, before glucose; control −14. It counts as in vivo. The method, then:
The fasting plasma glucose concentration (table 4) is measured from blood samples obtained after a 2 hour fasting period on day 5 before the administration of glucose. In addition, preferred extracts of the invention in hand show a significant decrease of the fasting plasma glucose concentration versus initial basal glycemia. Preferred extracts show a decrease of the fasting plasma glucose concentration of at least 10%, more preferred of at least 28% versus initial basal glycemia.
The fasting plasma glucose concentration (table 4) is measured from blood samples obtained after a 2 hour fasting period on day 5 before the administration of glucose.

Test [2] relates to N0-STZ rats. The test is described as follows: Oral Glucose Tolerance Test (OGTT) in the N0-STZ rat model after 5 days of gavage. It counts as in vivo. Particulars: Example 2a, 2 × 100 mg/kg daily for 5 days. The method, then: The N0-STZ rat model is described in Portha B., Picon L., Rosselin G., Diabetologia, 1979, 17, 371-377. The Oral Glucose Tolerance Test (OGTT) is described in Wilkerson: Diagnosis, oral glucose tolerance test: in Diabetes mellitus, Diagnosis & Treatment, p.31-34, NY, American Diabetes Association, 1964. During 5 days an appropriate dose of the extract is gavaged into the N0-STZ rats two times a day. Three hours after the last administration the Oral Glucose Tolerance Test (OGTT) is performed in awake rats by administering 2 g glucose/kg body weight. Blood samples are collected just before glucose administration (0 min) and after 30, 60 90, 120 and 180 minutes.
The N0-STZ rat model is used to evaluate the efficacy of the extract of example 1. During 5 days an appropriate dose of the drug (table 1) is gavaged into 8 N0-STZ rats two times a day. Three hours after the last administration the Oral Glucose Tolerance Test (OGTr) is performed in awake rats by administering 2 g glucose/kg body weight. Blood samples are collected just before glucose administration (0 min) and after 30, 60 90 and 120 minutes.
The N0-STZ rat model is used to evaluate the efficacy of the extract of example 1. During 5 days an appropriate dose of the drug (table 5) is gavaged into 8 N0-STZ rats. Three hours after the last administration the Oral Glucose Tolerance Test (OGTT) is performed in awake rats by administering 2 g glucose/kg body weight. Blood samples are collected just before glucose administration (0 min) and after 30, 60 90 and 120 minutes.

Each structure is given as a SMILES string.

With `CN(C)C(=N)N=C(N)N` [example 24, metformin], the “Effect on fasting Plasma Glucose Concentration in % of variation versus initial basal glycemia” value in the test on N0-STZ rats [1] was −31%. In addition, the “OGTT area under curve: deviation from control (23)” value in the test on N0-STZ rats [2] is on record as −18%. Moreover, the “OGTT: Area under curve (Integration of the Plasma Glucose Level versus time, table 2)” value with N0-STZ rats [2] (0-120 min) turned out to be 26363. Besides, the “Plasma Glucose Level” value in the test with N0-STZ rats [2] (30 min after 2 g glucose/kg) turned out to be 245 mg/dL; in the test with N0-STZ rats [2] (60 min after 2 g glucose/kg), 242 mg/dL; with N0-STZ rats [2] (90 min after 2 g glucose/kg), 223 mg/dL; with N0-STZ rats [2] (120 min after 2 g glucose/kg) it was 207 mg/dL; with N0-STZ rats [2] (time −0 min (just before 2 g glucose/kg)) it was 143 mg/dL.

Source of the values: patent US20040170714A1, “Bauhinia extracts” (priority 2001, published 2004).
